{"source": "patent US20210122781A1", "about": "“STAPLED PEPTIDES” (Agency for Science, Technology and Research, priority 2017, published 2021)", "key": {"p53 protein levels": {"system": "p53 protein levels", "assay": "p53 staining of spleens from p53 wild type mice after IP injection of peptide", "type": "in vivo", "settings": "normal p53 wild type mice, 40 mg/kg IP, spleens harvested 5 hours post injection, late- vs early-eluting isomer", "protocol": "FIG. 5. Spleen samples of wildtype-p53 mice harvested 5 hours after intraperitoneal injection with either DMSO (vehicle) or the early or late eluting isomer of stapled peptides VIP82, VIP115 or VIP116. […] A subset of the peptide analogues was subsequently assessed for their ability to stabilise p53 protein levels in proliferating cells. In particular, lysine-containing peptides were chosen due to their enhanced solubility in biological buffers. Normal p53 wild type mice were administered with either vehicle (DMSO) or 40 mg/kg of peptide via IP. Spleens were then harvested 5 hours post injection and histological samples were processed for p53 staining (FIG. 5)."}, "p53 stabilization": {"system": "p53 stabilization", "assay": "p53 IHC staining of spleen and tumour from C57BL/6 mice bearing B16F10 melanoma allograft", "type": "in vivo", "settings": "C57BL/6 mice with B16F10 melanoma allograft, 40 mg/kg intraperitoneal, harvested 6 hours post injection, listed as VIP116 late-eluting isomer", "protocol": "FIG. 6. Photomicrographs of (A) spleen and (B) tumour samples from C57BL/6 mice after treatment with DMSO vehicle or p53-stabilising stapled peptide isomers VIP116 (both early-eluting and late-eluting isomers) and ATSP-7041 (late-eluting isomer only).\nThe stapled peptides VIP116 (both early-eluting and late-eluting isomers) and ATSP-7041 (late-eluting isomer) were injected into C57BL/6 mice bearing an allograft tumour (B16F10 melanoma cells) via intraperitoneal injection at a dose of 40 mg/kg. The spleen and tumour were both harvested from the mice 6 hours post injection. The p53 stabilization was detected and visualised in harvested tissue samples by p53 IHC staining (FIG. 6). A vehicle (2% DMSO in HBSS buffer) was used as a control."}}, "note": "“Also recorded” adds a separate entry of the source. Bridge positions count the residues as written; N and C are the ends. Square brackets hold non-standard residues; d marks the D form. Peptide text beside a SMILES is read from it. R8 = C=CCCCCCC[C@@](C)(N)C(=O)O; S5 = C=CCCC[C@](C)(N)C(=O)O; Ahx = NCCCCCC(=O)O"}
{"smiles": "CC(=O)N[C@@H](CCCCN)C(=O)N[C@@H](CCCCN)C(=O)N[C@@H](CCCCN)C(=O)NCCCCCC(=O)N[C@H](C(=O)N[C@@H](CO)C(=O)N[C@@H](Cc1ccccc1)C(=O)N[C@]1(C)CCCCCC/C=C/CCC[C@@](C)(C(=O)N[C@@H](CCC(=O)O)C(=O)N[C@@H](CC(N)=O)C(=O)N[C@@H](Cc2ccccc2)C(N)=O)NC(=O)[C@H](CC(C)C)NC(=O)[C@H](CC(C)C)NC(=O)[C@H](C)NC(=O)[C@H](Cc2c[nH]c3ccccc23)NC(=O)[C@H](Cc2ccc(O)cc2)NC(=O)[C@H](CCC(=O)O)NC1=O)[C@@H](C)O", "note": "[VIP115-Late] (Ac-KKK[Ahx]TSF[R8]EYWALL[S5]ENF-NH2; staple (E) 8-15)", "values": [{"measurement": "p53 protein level / expression in spleen (p53 staining)", "setting": "p53 protein levels; listed as VIP115 late eluting isomer, 40 mg/kg", "result": "higher in the late eluting isomer"}, {"measurement": "p53 protein level / expression in spleen (p53 staining)", "setting": "p53 protein levels; listed as VIP115 late-eluting isomer, 40 mg/kg", "result": "higher concentration of p53 in mouse tissues compared to the early-eluting isomer"}]}
{"smiles": "CC(=O)N[C@@H](CCCCN)C(=O)N[C@@H](CCCCN)C(=O)NCCCCCC(=O)N[C@H](C(=O)N[C@@H](CO)C(=O)N[C@@H](Cc1ccccc1)C(=O)N[C@]1(C)CCCCCC/C=C/CCC[C@@](C)(C(=O)N[C@@H](CCC(=O)O)C(=O)N[C@@H](CC(N)=O)C(=O)N[C@@H](Cc2ccccc2)C(N)=O)NC(=O)[C@H](CC(C)C)NC(=O)[C@H](CC(C)C)NC(=O)[C@H](C)NC(=O)[C@H](Cc2c[nH]c3ccccc23)NC(=O)[C@H](Cc2ccc(O)cc2)NC(=O)[C@H](CCC(=O)O)NC1=O)[C@@H](C)O", "note": "[VIP82-Late] (Ac-KK[Ahx]TSF[R8]EYWALL[S5]ENF-NH2; staple (E) 7-14)", "values": [{"measurement": "p53 protein level / expression in spleen (p53 staining)", "setting": "p53 protein levels; listed as VIP82 late eluting isomer, 40 mg/kg", "result": "higher in the late eluting isomer"}, {"measurement": "p53 protein level / expression in spleen (p53 staining)", "setting": "p53 protein levels; listed as VIP82 late-eluting isomer, 40 mg/kg", "result": "higher concentration of p53 in mouse tissues compared to the early-eluting isomer"}]}
{"smiles": "CC(=O)N[C@@H](CCCCN)C(=O)NCCCCCC(=O)N[C@H](C(=O)N[C@@H](CO)C(=O)N[C@@H](Cc1ccccc1)C(=O)N[C@]1(C)CCCCCC/C=C/CCC[C@@](C)(C(=O)N[C@@H](CCC(=O)O)C(=O)N[C@@H](CC(N)=O)C(=O)N[C@@H](Cc2ccccc2)C(N)=O)NC(=O)[C@H](CC(C)C)NC(=O)[C@H](CC(C)C)NC(=O)[C@H](C)NC(=O)[C@H](Cc2c[nH]c3ccccc23)NC(=O)[C@H](Cc2ccc(O)cc2)NC(=O)[C@H](CCC(=O)O)NC1=O)[C@@H](C)O", "note": "[VIP116-Late]", "values": [{"measurement": "p53 protein level / expression in spleen (p53 staining)", "setting": "p53 protein levels", "result": "as active as the early-isomer"}, {"measurement": "p53 activation response (p53 IHC staining) in spleen and tumour", "setting": "p53 stabilization", "result": "higher p53 activation response in both spleen and tumour samples; also recorded: more potent than the late-eluting isomer of ATSP-7041"}]}
